Laboratory results as given in paper PMC4955205, “EctD-mediated biotransformation of the chemical chaperone ectoine into hydroxyectoine and its mechanosensitive channel-independent excretion” (Microbial Cell Factories, 2016).

What was measured:
Type in all cases: cell-based
EctD (N. maritimus) = molecular target: T1, EctD (N. maritimus) (Nitrosopumilus maritimus, UniProt A9A2K0); assay: whole-cell biotransformation in E. coli FF4169, HPLC; settings: 10 mM ectoine in medium, MMA with 0.4 M NaCl, 37 °C, 24 h; Fe(II) and 2-oxoglutarate of the cell
T1 construct: gene Nmar_1343; full length, Strep-tag II, codon-optimized gene, plasmid pMP45, expressed in E. coli FF4169
T1 sequence (A9A2K0 1-304): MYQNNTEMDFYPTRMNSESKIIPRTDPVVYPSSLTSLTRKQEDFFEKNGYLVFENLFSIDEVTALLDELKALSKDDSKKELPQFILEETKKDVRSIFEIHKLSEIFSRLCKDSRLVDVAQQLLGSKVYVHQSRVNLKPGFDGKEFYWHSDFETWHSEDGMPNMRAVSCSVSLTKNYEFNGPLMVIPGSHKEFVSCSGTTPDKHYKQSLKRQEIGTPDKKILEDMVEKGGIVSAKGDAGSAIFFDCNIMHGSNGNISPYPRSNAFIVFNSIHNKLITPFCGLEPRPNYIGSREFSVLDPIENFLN

[1] = molecular target: T2, EctD (P. stutzeri A1501), ectoine hydroxylase (Stutzerimonas stutzeri, UniProt A4VFY4); assay: as above; settings: 10 mM ectoine in medium, MMA with 0.4 M NaCl, 37 °C, 24 h; Fe(II) and 2-oxoglutarate of the cell
T2 construct: homodimer
T2 sequence (A4VFY4 1-302): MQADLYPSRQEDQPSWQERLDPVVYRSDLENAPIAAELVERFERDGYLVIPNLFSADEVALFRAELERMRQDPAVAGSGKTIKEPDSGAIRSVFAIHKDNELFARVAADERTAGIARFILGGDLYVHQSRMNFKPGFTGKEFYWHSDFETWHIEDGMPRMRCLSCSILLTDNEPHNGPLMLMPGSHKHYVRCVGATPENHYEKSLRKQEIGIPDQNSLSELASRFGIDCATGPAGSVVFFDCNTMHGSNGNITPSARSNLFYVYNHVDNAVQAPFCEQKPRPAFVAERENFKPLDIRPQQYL

EctD (S. alaskensis) = molecular target: T3, EctD (S. alaskensis) (Sphingopyxis alaskensis, UniProt Q1GNW5); assay: as above; settings: 10 mM ectoine in medium, MMA with 0.4 M NaCl, 37 °C, 24 h; Fe(II) and 2-oxoglutarate of the cell
T3 construct: full length, Strep-tag II, plasmid pMP40, expressed in E. coli FF4169; homodimer
T3 sequence (Q1GNW5 1-306): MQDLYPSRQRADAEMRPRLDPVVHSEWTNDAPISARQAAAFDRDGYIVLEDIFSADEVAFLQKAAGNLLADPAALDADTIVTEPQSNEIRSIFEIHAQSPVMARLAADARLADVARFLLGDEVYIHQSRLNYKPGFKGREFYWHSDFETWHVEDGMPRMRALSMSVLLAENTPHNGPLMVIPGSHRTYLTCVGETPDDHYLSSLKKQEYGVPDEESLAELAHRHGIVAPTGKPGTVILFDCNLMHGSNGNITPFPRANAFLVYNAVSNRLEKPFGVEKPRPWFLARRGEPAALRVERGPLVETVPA

EctD (H. elongata) = molecular target: T4, EctD (H. elongata) (Halomonas elongata, UniProt E1VA04); assay: as above; settings: 10 mM ectoine in medium, MMA with 0.4 M NaCl, 37 °C, 24 h; Fe(II) and 2-oxoglutarate of the cell
T4 construct: full length, Strep-tag II, plasmid pMP32, expressed in E. coli FF4169
T4 sequence (E1VA04 1-332): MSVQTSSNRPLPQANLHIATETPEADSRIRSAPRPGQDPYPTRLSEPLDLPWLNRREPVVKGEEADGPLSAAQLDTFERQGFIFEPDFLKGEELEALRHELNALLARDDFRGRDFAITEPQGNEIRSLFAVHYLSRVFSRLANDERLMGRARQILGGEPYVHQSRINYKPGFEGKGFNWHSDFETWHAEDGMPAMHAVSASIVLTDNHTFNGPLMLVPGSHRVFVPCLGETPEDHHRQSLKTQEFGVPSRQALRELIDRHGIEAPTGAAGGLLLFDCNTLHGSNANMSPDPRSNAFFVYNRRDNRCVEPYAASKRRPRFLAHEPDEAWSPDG

EctD (A. ehrlichii) = molecular target: T5, EctD (A. ehrlichii) (Alkalilimnicola ehrlichii, UniProt A0A3E0X329); assay: as above; settings: 10 mM ectoine in medium, MMA with 0.4 M NaCl, 37 °C, 24 h; Fe(II) and 2-oxoglutarate of the cell
T5 construct: gene CAL65_03675; full length, Strep-tag II, codon-optimized gene, plasmid pMP44, expressed in E. coli FF4169
T5 sequence (A0A3E0X329 1-303): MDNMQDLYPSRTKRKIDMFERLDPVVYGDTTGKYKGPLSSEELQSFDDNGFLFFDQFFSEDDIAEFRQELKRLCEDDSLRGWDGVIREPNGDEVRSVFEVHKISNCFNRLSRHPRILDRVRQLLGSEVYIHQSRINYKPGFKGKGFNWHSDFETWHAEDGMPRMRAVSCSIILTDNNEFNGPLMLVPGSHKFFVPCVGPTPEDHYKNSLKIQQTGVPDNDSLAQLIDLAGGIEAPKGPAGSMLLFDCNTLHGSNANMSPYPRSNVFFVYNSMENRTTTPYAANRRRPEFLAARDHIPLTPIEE

EctD (P. lautus) = molecular target: T6, EctD (P. lautus) (Paenibacillus lautus, UniProt A0A385TC02); assay: as above; settings: 10 mM ectoine in medium, MMA with 0.4 M NaCl, 37 °C, 24 h; Fe(II) and 2-oxoglutarate of the cell
T6 construct: gene thpD; full length, Strep-tag II, codon-optimized gene, plasmid pMP43, expressed in E. coli FF4169
T6 sequence (A0A385TC02 1-302): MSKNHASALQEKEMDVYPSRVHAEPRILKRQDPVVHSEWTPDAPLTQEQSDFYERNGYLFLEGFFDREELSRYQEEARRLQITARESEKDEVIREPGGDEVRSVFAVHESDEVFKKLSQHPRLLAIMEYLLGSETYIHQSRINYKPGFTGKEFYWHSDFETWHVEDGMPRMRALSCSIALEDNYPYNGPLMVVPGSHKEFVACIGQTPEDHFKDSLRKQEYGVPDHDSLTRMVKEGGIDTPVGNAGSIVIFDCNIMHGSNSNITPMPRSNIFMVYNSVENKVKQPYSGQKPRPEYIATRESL

ProU ABC transporter = molecular target: T7, ProU ABC transporter (Escherichia coli, UniProt P0AFM2); assay: inhibition of [[…]-14C]glycine betaine uptake, whole cells of ProP- ProU+ strain; settings: 100 µM [1-14C]glycine betaine, MMA with 0.4 M NaCl, 37 °C, 5 min
T7 construct: gene proX; native chromosomal transporter in whole cells of a proP deletion strain; with Glycine betaine/proline betaine transport system permease protein ProW
T7 sequence (P14176 whole entry): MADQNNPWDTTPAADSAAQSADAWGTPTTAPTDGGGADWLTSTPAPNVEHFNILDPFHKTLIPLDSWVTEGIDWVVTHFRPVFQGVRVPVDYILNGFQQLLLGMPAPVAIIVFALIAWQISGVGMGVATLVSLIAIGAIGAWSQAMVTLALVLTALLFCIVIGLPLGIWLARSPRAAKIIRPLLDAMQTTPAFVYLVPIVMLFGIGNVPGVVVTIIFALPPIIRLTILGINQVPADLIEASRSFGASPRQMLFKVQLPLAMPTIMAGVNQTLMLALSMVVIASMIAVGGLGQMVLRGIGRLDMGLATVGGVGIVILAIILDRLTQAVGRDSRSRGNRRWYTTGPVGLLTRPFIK
T7 sequence (P0AFM2 22-330): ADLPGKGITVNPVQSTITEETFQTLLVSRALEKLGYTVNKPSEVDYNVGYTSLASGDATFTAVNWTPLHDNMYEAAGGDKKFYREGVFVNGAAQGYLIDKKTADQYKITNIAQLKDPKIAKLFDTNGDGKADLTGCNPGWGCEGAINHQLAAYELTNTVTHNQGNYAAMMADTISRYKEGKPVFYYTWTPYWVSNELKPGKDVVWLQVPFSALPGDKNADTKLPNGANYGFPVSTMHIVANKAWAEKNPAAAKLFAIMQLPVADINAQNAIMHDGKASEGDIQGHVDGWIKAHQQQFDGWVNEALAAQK
T7 sequence (P14175 whole entry, further chain): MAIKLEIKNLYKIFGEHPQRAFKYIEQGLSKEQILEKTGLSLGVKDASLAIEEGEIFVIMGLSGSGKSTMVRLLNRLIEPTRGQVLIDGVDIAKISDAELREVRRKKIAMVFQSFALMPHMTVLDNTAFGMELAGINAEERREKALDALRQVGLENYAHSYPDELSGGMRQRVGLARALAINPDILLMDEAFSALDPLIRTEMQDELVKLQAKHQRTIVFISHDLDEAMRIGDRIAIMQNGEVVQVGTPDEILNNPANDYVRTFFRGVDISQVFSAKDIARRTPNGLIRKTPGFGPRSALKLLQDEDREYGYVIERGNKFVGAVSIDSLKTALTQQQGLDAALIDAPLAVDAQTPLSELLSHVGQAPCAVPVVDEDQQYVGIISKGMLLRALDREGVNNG

ProP = molecular target: T8, ProP (Escherichia coli, UniProt P0C0L7); assay: inhibition of [[…]-14C]glycine betaine uptake, whole cells of ProP+ ProU- strain; settings: 100 µM [1-14C]glycine betaine, MMA with 0.4 M NaCl, 37 °C, 5 min; unlabelled glycine betaine 1 mM; labelled compound
T8 construct: native chromosomal transporter in whole cells of a proU deletion strain
T8 sequence (P0C0L7 whole entry): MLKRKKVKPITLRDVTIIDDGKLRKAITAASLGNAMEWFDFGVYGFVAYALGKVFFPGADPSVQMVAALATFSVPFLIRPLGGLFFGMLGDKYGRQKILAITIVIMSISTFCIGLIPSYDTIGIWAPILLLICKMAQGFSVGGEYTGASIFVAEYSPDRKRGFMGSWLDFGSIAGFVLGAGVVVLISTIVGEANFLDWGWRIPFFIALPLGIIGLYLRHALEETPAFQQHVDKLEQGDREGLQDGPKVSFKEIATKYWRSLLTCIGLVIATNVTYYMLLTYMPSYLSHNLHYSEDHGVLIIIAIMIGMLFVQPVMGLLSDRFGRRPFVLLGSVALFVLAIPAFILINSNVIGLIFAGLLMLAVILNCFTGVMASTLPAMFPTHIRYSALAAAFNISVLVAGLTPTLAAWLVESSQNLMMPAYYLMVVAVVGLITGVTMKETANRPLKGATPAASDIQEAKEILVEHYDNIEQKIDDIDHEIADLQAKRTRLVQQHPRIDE

Structure (SMILES) | whole-cell biotransformation in E. coli FF4169, HPLC (EctD (N. maritimus)) | whole-cell biotransformation in E. coli FF4169, HPLC [1] | whole-cell biotransformation in E. coli FF4169, HPLC (EctD (S. alaskensis)) | whole-cell biotransformation in E. coli FF4169, HPLC (EctD (H. elongata)) | whole-cell biotransformation in E. coli FF4169, HPLC (EctD (A. ehrlichii)) | whole-cell biotransformation in E. coli FF4169, HPLC (EctD (P. lautus)) | % inhibition at 1000-fold excess (ProU ABC transporter; competitor 1000-fold excess (100 mM)) | % inhibition at tenfold excess (ProU ABC transporter; unlabelled glycine betaine 1 mM, labelled compound) | % inhibition at tenfold excess (ProP)
CC1=NCC[C@@H](C(=O)O)N1 [ectoine, (S)-2-methyl-1,4,5,6-tetrahydropyrimidine-4-carboxylic acid] | almost all of the provided ectoine had been converted into 5-hydroxyectoine | almost all of the provided ectoine had been converted into 5-hydroxyectoine | a mixture of the added ectoine and the newly produced 5-hydroxyectoine were observed | a mixture of the added ectoine and the newly produced 5-hydroxyectoine were observed | a mixture of the added ectoine and the newly produced 5-hydroxyectoine were observed | a mixture of the added ectoine and the newly produced 5-hydroxyectoine were observed | 45% |  | 
C[N+](C)(C)CC(=O)[O-] [glycine betaine] |  |  |  |  |  |  |  | ~ 85% | ~ 85%
